From PubChem BioAssay AID230 (DTP/NCI, 2004)
“And” between values parts separate entries of the source, which are not always exact repeats. Equal values may be shown once. Toxic doses and inconclusive results are not listed.

Tested on: C3H/He mice, Gardner lymphosarcoma 6C3HED ip, survival T/C
Experiment: NCI In Vivo Anticancer Drug Screen. Data for tumor model Lymphosarcoma Gardner 6C3HED (intraperitoneal) in C3H/He mice
Conditions: higher = longer survival
Experimental: The antitumor activity of compounds was measured in mice bearing transplantable tumors. Survival or tumor size were measured and the results are expressed as the measurement made in the treated group (T) divided by the measurement made in the vehicle treated control group (C). The tumor model used in this assay is Lymphosarcoma Gardner 6C3HED (intraperitoneal) in C3H/He mice

[1] = endpoint: survival time, mean or median, dose: 7.8 mg/kg/injection, schedule: Q01DX010 (ip), vehicle: saline
[2] = endpoint: survival time, mean or median, dose: 0.25 mg/kg/injection, schedule: Q01DX010 (ip), vehicle: saline
[3] = endpoint: survival time, mean or median, dose: 5.0 mg/kg/injection, schedule: Q01DX010 (ip), vehicle: saline
[4] = endpoint: survival time, mean or median, dose: 10.0 mg/kg/injection, schedule: Q01DX010 (ip), vehicle: saline
[5] = endpoint: survival time, mean or median, dose: 20.0 mg/kg/injection, schedule: Q01DX010 (ip), vehicle: saline
[6] = endpoint: survival time, mean or median, dose: 40.0 mg/kg/injection, schedule: Q01DX010 (ip), vehicle: saline
[7] = endpoint: survival time, mean or median, dose: 80.0 mg/kg/injection, schedule: Q01DX010 (ip), vehicle: saline
[8] = endpoint: survival time, mean or median, dose: 2.0 mg/kg/injection, schedule: Q01DX010 (ip), vehicle: saline

Q: With `CC(N)(CC(=O)O)C(=O)O` (centres undefined) as the compound, how does the T/C (endpoint: median survival time, dose: 3.12 mg/kg/injection, schedule: Q01DX009 (ip), vehicle: saline) read?
A: 90 % of control and 98 % of control

Q: What about the T/C (endpoint: median survival time, dose: 6.25 mg/kg/injection, schedule: Q01DX009 (ip), vehicle: saline) of the same compound?
A: 96 % of control

Q: What about the T/C (endpoint: median survival time, dose: 12.5 mg/kg/injection, schedule: Q01DX009 (ip), vehicle: saline) of the same compound?
A: 92 % of control and 99 % of control

Q: And the T/C (endpoint: median survival time, dose: 25.0 mg/kg/injection, schedule: Q01DX009 (ip), vehicle: saline)?
A: 86 % of control

Q: And the T/C (endpoint: median survival time, dose: 50.0 mg/kg/injection, schedule: Q01DX009 (ip), vehicle: saline)?
A: 101 % of control

Q: Which T/C [1] does the source give for `Nc1c(Br)cc2c(c1Br)Cc1cc([N+](=O)[O-])ccc1-2` here?
A: 92 % of control

Q: For `CN(C)CC(=O)c1ccc(O)c(O)c1`, which T/C (endpoint: survival time, mean or median, dose: 300.0 mg/kg/injection, schedule: Q01DX010 (ip), vehicle: saline) is on record?
A: 180 % of control

Q: And the T/C (endpoint: survival time, mean or median, dose: 675.0 mg/kg/injection, schedule: Q01DX010 (ip), vehicle: saline)?
A: 106 % of control

Q: How did the T/C [2] turn out when `Nc1ncnc2c1ccn2C1OC(CO)C(O)C1O` (centres undefined) was run?
A: 90 % of control

Q: `COc1cc(-c2ccc(Nc3ccccc3C(=O)O)c(OC)c2)ccc1N` was tested. Which T/C [3] did it give?
A: 110 % of control

Q: What about the T/C [4] of the same compound?
A: 96 % of control and 107 % of control

Q: What about the T/C [5] of the same compound?
A: 92 % of control

Q: And the T/C [6]?
A: 89 % of control and 96 % of control

Q: And the T/C [7]?
A: 89 % of control

Q: Which T/C (endpoint: survival time, mean or median, dose: 0.13 mg/kg/injection, schedule: Q01DX010 (ip), vehicle: saline) does the source give for `CO[C@H](C(=O)[C@@H](O)[C@@H](C)O)[C@@H]1Cc2cc3cc(OC4CC(OC5CC(O)C(O)C(C)O5)C(O)C(C)O4)c(C)c(O)c3c(O)c2C(=O)[C@H]1OC1CC(OC2CC(OC3CC(C)(O)C(O)C(C)O3)C(O)C(C)O2)C(O)C(C)O1` (some centres undefined) here?
A: 111 % of control

Q: And the T/C [2]?
A: 123 % of control

Q: What about the T/C (endpoint: survival time, mean or median, dose: 1.0 mg/kg/injection, schedule: Q01DX010 (ip), vehicle: saline) of the same compound?
A: 300 % of control

Q: And the T/C [8]?
A: 188 % of control

Q: Which T/C (endpoint: survival time, mean or median, dose: 31.0 micrograms/kg/injection, schedule: Q01DX010 (ip), vehicle: saline) does the source give for `N#Cc1cn(C2OC(CO)C(O)C2O)c2ncnc(N)c12` (centres undefined) here?
A: 96 % of control

Q: And the T/C (endpoint: survival time, mean or median, dose: 125.0 micrograms/kg/injection, schedule: Q01DX010 (ip), vehicle: saline)?
A: 96 % of control

Q: Which T/C [3] does the source give for `O=c1[nH]c(=O)n(C2CC(O)C(CO)O2)cc1F` (centres undefined) here?
A: 115 % of control and 303 % of control

Q: What about the T/C [4] of the same compound?
A: 100 % of control and 115 % of control

Q: And the T/C [5]?
A: 107 % of control and 229 % of control

Q: What about the T/C [6] of the same compound?
A: 115 % of control and 212 % of control

Q: `OC(CBr)C(O)C(O)C(O)CBr` (centres undefined) was tested. Which T/C (endpoint: survival time, mean or median, dose: 25.0 mg/kg/injection, schedule: Q01DX010 (ip), vehicle: saline) did it give?
A: 88 % of control and 96 % of control

Q: What about the T/C (endpoint: survival time, mean or median, dose: 50.0 mg/kg/injection, schedule: Q01DX010 (ip), vehicle: saline) of the same compound?
A: 88 % of control and 110 % of control

Q: What about the T/C (endpoint: survival time, mean or median, dose: 100.0 mg/kg/injection, schedule: Q01DX010 (ip), vehicle: saline) of the same compound?
A: 100 % of control and 110 % of control

Q: What about the T/C (endpoint: survival time, mean or median, dose: 200.0 mg/kg/injection, schedule: Q01DX010 (ip), vehicle: saline) of the same compound?
A: 88 % of control and 110 % of control

Q: For `NC(CC(=O)NO)C(=O)O` (centres undefined), which T/C (endpoint: median survival time, dose: 100.0 mg/kg/injection, schedule: Q01DX005 (ip), vehicle: water) is on record?
A: 96 % of control

Q: What about the T/C (endpoint: median survival time, dose: 200.0 mg/kg/injection, schedule: Q01DX005 (ip), vehicle: water) of the same compound?
A: 107 % of control

Q: And the T/C (endpoint: median survival time, dose: 400.0 mg/kg/injection, schedule: Q01DX005 (ip), vehicle: water)?
A: 115 % of control

Q: What about the T/C (endpoint: median survival time, dose: 800.0 mg/kg/injection, schedule: Q01DX005 (ip), vehicle: water) of the same compound?
A: 111 % of control

Q: How did the T/C (endpoint: survival time, mean or median, dose: 8.0 mg/kg/injection, schedule: Q01DX010 (ip), vehicle: saline) turn out when `O=C(Nc1ccc(C2=NCCN2)cc1)c1cccc(C(=O)Nc2ccc(C3=NCCN3)cc2)c1` was run?
A: 95 % of control

Q: What about the T/C (endpoint: survival time, mean or median, dose: 16.0 mg/kg/injection, schedule: Q01DX010 (ip), vehicle: saline) of the same compound?
A: 304 % of control

Q: And the T/C (endpoint: survival time, mean or median, dose: 32.0 mg/kg/injection, schedule: Q01DX010 (ip), vehicle: saline)?
A: 304 % of control

Q: And the T/C (endpoint: survival time, mean or median, dose: 64.0 mg/kg/injection, schedule: Q01DX010 (ip), vehicle: saline)?
A: 304 % of control

Q: How did the T/C (endpoint: median survival time, dose: 13.8 mg/kg/injection, schedule: Q01DX003 (ip), vehicle: saline) turn out when `Nc1ncnc2c1ncn2C1OC(COC=O)C(O)C1O` (centres undefined) was run?
A: 90 % of control

Q: And the T/C (endpoint: median survival time, dose: 13.8 mg/kg/injection, schedule: Q12HX006 (ip), vehicle: saline)?
A: 104 % of control

Q: And the T/C (endpoint: median survival time, dose: 27.6 mg/kg/injection, schedule: Q01DX003 (ip), vehicle: saline)?
A: 104 % of control

Q: What about the T/C (endpoint: median survival time, dose: 27.6 mg/kg/injection, schedule: Q12HX006 (ip), vehicle: saline) of the same compound?
A: 104 % of control

Q: What about the T/C (endpoint: median survival time, dose: 55.2 mg/kg/injection, schedule: Q01DX003 (ip), vehicle: saline) of the same compound?
A: 104 % of control

Q: And the T/C (endpoint: median survival time, dose: 55.2 mg/kg/injection, schedule: Q12HX006 (ip), vehicle: saline)?
A: 120 % of control

Q: For `C=CC(CN1CC1)OC(C)=O` (centres undefined), which T/C [8] is on record?
A: 107 % of control

Q: And the T/C (endpoint: survival time, mean or median, dose: 4.0 mg/kg/injection, schedule: Q01DX010 (ip), vehicle: saline)?
A: 123 % of control

Q: `CCOC(=O)NP(=O)(N1CC1)N1CC1` was tested. Which T/C (endpoint: survival time, mean or median, dose: 2.5 mg/kg/injection, schedule: Q01DX010 (ip), vehicle: saline) did it give?
A: 100 % of control and 107 % of control

Q: And the T/C [3]?
A: 107 % of control and 117 % of control

Q: And the T/C [4]?
A: 157 % of control

Q: And the T/C [5]?
A: 92 % of control and 103 % of control

Q: For `CCN(CCNc1ccc(C)c2sc3cc(Cl)ccc3c(=O)c12)CC(C)O` (centres undefined), which T/C [1] is on record?
A: 110 % of control

Q: What about the T/C (endpoint: survival time, mean or median, dose: 15.6 mg/kg/injection, schedule: Q01DX010 (ip), vehicle: saline) of the same compound?
A: 100 % of control

Q: What about the T/C (endpoint: survival time, mean or median, dose: 31.3 mg/kg/injection, schedule: Q01DX010 (ip), vehicle: saline) of the same compound?
A: 100 % of control

Q: What about the T/C (endpoint: survival time, mean or median, dose: 62.5 mg/kg/injection, schedule: Q01DX010 (ip), vehicle: saline) of the same compound?
A: 88 % of control and 96 % of control

Q: For `CCCSc1ncnc2nc[nH]c12`, which T/C (endpoint: survival time, mean or median, dose: 125.0 mg/kg/injection, schedule: Q01DX010 (ip), vehicle: saline) is on record?
A: 95 % of control

Q: And the T/C (endpoint: survival time, mean or median, dose: 250.0 mg/kg/injection, schedule: Q01DX010 (ip), vehicle: saline)?
A: 95 % of control

Q: What does the source list for `C[C@]12C=CC(=O)C=C1CC[C@@H]1[C@@H]2[C@@H](O)C[C@@]2(C)[C@H]1CC[C@]2(O)C(=O)CO`?
A: T/C (endpoint: survival time, mean or median, dose: 12.5 mg/kg/injection, schedule: Q01DX010 (sc), vehicle: steriod suspending solution): 95 % of control and 100 % of control; T/C (endpoint: survival time, mean or median, dose: 25.0 mg/kg/injection, schedule: Q01DX010 (sc), vehicle: steriod suspending solution): 90 % of control and 110 % of control; T/C (endpoint: survival time, mean or median, dose: 50.0 mg/kg/injection, schedule: Q01DX010 (sc), vehicle: steriod suspending solution): 95 % of control and 105 % of control; T/C (endpoint: survival time, mean or median, dose: 100.0 mg/kg/injection, schedule: Q01DX010 (sc), vehicle: steriod suspending solution): 95 % of control and 110 % of control

Q: Which results are given for `Nc1ncnc2c1ncn2C1OC(CO)C(O)C1O` (centres undefined)?
A: T/C (endpoint: median survival time, dose: 12.5 mg/kg/injection, schedule: Q01DX003 (ip), vehicle: saline): 90 % of control; T/C (endpoint: median survival time, dose: 12.5 mg/kg/injection, schedule: Q11DX018 (ip), vehicle: saline with Tween-80): 96 % of control; T/C (endpoint: median survival time, dose: 12.5 mg/kg/injection, schedule: Q12HX006 (ip), vehicle: saline): 108 % of control; T/C (endpoint: median survival time, dose: 25.0 mg/kg/injection, schedule: Q01DX003 (ip), vehicle: saline): 95 % of control; T/C (endpoint: median survival time, dose: 25.0 mg/kg/injection, schedule: Q12HX006 (ip), vehicle: saline): 112 % of control; T/C (endpoint: median survival time, dose: 50.0 mg/kg/injection, schedule: Q01DX003 (ip), vehicle: saline): 100 % of control; T/C (endpoint: median survival time, dose: 50.0 mg/kg/injection, schedule: Q12HX006 (ip), vehicle: saline): 120 % of control

Q: What does the source list for `Cn1cnc([N+](=O)[O-])c1Sc1ncnc2nc[nH]c12`?
A: T/C [4]: 86 % of control; T/C [5]: 93 % of control; T/C [6]: 86 % of control; T/C [7]: 86 % of control
